The supplement of paper PMC10307832

What was measured:
Assay in all cases: relative viability (nuclei count vs DMSO), 5 days (fraction); higher = more cells survive
Indole-3-carbinol = compound: OCc1c[nH]c2ccccc12 [Indole-3-carbinol]
Outline: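 Viability was read as treated-well nuclei divided by vehicle-well nuclei, using the median across plates. Lung cancer cell lines in 1536-well plates were kept overnight at 37 °C, pinned with five √10-spaced library-drug doses, and after 5 days were Hoechst-stained, imaged at 4× and counted in MetaXpress. Plates passed only with control CV below 25% and at least one doubling.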

[1] = compound: OCc1c[nH]c2ccccc12 [Indole-3-carbinol] + Cc1nc(NC(=O)N2CCC[C@H]2C(N)=O)sc1-c1ccnc(C(C)(C)C(F)(F)F)c1 [Alpelisib] (partner 2 µM)
Outline: (§1)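 Relative viability equals treated-well nuclei counts divided by vehicle-well nuclei counts. Counts came from 4× images of lung cancer cell lines grown in 1536-well plates for 5 days after pin-tool dosing on the day after seeding. Dosing used one drug alone or a fixed anchor-drug dose plus five library-drug doses (not always all listed) in √10 steps, and values are medians of duplicate plates.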

[2] = compound: OCc1c[nH]c2ccccc12 [Indole-3-carbinol] + C[C@@H](Oc1cc(-c2cnn(C3CCNCC3)c2)cnc1N)c1c(Cl)ccc(F)c1Cl [Crizotinib] (partner 1 µM)
Outline: as §1

[3] = compound: OCc1c[nH]c2ccccc12 [Indole-3-carbinol] + Cc1nc(Nc2ncc(C(=O)Nc3c(C)cccc3Cl)s2)cc(N2CCN(CCO)CC2)n1 [Dasatinib] (partner 0.075 µM)
Outline: as §1

[4] = compound: OCc1c[nH]c2ccccc12 [Indole-3-carbinol] + O=C(c1cc(Cc2n[nH]c(=O)c3ccccc23)ccc1F)N1CCN(C(=O)C2CC2)CC1 [Olaparib] (partner 8 µM)
Outline: as §1

NCI-H2023
relative viability (Indole-3-carbinol; 0.253 µM): 0.952
relative viability (Indole-3-carbinol; 0.8 µM): 0.963
relative viability (Indole-3-carbinol; 2.53 µM): 0.984
relative viability (Indole-3-carbinol; 8 µM): 0.935
relative viability ([1]; first compound 0.253 µM): 0.587
relative viability ([1]; first compound 0.8 µM): 0.587
relative viability ([1]; first compound 2.53 µM): 0.592
relative viability ([1]; first compound 8 µM): 0.626
relative viability ([2]; first compound 0.253 µM): 0.716
relative viability ([2]; first compound 0.8 µM): 0.732
relative viability ([2]; first compound 2.53 µM): 0.651
relative viability ([2]; first compound 8 µM): 0.631
relative viability ([3]; first compound 0.253 µM): 0.576
relative viability ([3]; first compound 0.8 µM): 0.529
relative viability ([3]; first compound 2.53 µM): 0.578
relative viability ([3]; first compound 8 µM): 0.532
relative viability ([4]; first compound 0.253 µM): 0.471
relative viability ([4]; first compound 0.8 µM): 0.564
relative viability ([4]; first compound 2.53 µM): 0.518
relative viability ([4]; first compound 8 µM): 0.422

NCI-H2085
relative viability (Indole-3-carbinol; 0.253 µM): 1.01
relative viability (Indole-3-carbinol; 0.8 µM): 1.03
relative viability (Indole-3-carbinol; 2.53 µM): 1.03
relative viability (Indole-3-carbinol; 8 µM): 0.949
relative viability ([1]; first compound 0.253 µM): 0.905
relative viability ([1]; first compound 0.8 µM): 1.06
relative viability ([1]; first compound 2.53 µM): 1.05
relative viability ([1]; first compound 8 µM): 0.854
relative viability ([2]; first compound 0.253 µM): 0.897
relative viability ([2]; first compound 0.8 µM): 0.738
relative viability ([2]; first compound 2.53 µM): 0.832
relative viability ([2]; first compound 8 µM): 0.786
relative viability ([3]; first compound 0.253 µM): 0.259
relative viability ([3]; first compound 0.8 µM): 0.225
relative viability ([3]; first compound 2.53 µM): 0.256
relative viability ([3]; first compound 8 µM): 0.262
relative viability ([4]; first compound 0.253 µM): 0.9
relative viability ([4]; first compound 0.8 µM): 0.844
relative viability ([4]; first compound 2.53 µM): 0.773
relative viability ([4]; first compound 8 µM): 0.691

NCI-H2087
relative viability (Indole-3-carbinol; 0.253 µM): 1.18
relative viability (Indole-3-carbinol; 0.8 µM): 1.11
relative viability (Indole-3-carbinol; 2.53 µM): 1.01
relative viability (Indole-3-carbinol; 8 µM): 0.896
relative viability ([1]; first compound 0.253 µM): 0.807
relative viability ([1]; first compound 0.8 µM): 1.15
relative viability ([1]; first compound 2.53 µM): 1.01
relative viability ([1]; first compound 8 µM): 0.942
relative viability ([2]; first compound 0.253 µM): 1.01
relative viability ([2]; first compound 0.8 µM): 0.997
relative viability ([2]; first compound 2.53 µM): 1.1
relative viability ([2]; first compound 8 µM): 0.88
relative viability ([3]; first compound 0.253 µM): 0.985
relative viability ([3]; first compound 0.8 µM): 0.942
relative viability ([3]; first compound 2.53 µM): 0.936
relative viability ([3]; first compound 8 µM): 0.78
relative viability ([4]; first compound 0.253 µM): 0.575
relative viability ([4]; first compound 0.8 µM): 0.631
relative viability ([4]; first compound 2.53 µM): 0.625
relative viability ([4]; first compound 8 µM): 0.541

NCI-H2126
relative viability (Indole-3-carbinol; 0.253 µM): 0.986
relative viability (Indole-3-carbinol; 0.8 µM): 1.01
relative viability (Indole-3-carbinol; 2.53 µM): 0.997
relative viability (Indole-3-carbinol; 8 µM): 0.957
relative viability ([1]; first compound 0.253 µM): 0.751
relative viability ([1]; first compound 0.8 µM): 0.808
relative viability ([1]; first compound 2.53 µM): 0.714
relative viability ([1]; first compound 8 µM): 0.764
relative viability ([2]; first compound 0.253 µM): 1.01
relative viability ([2]; first compound 0.8 µM): 1.05
relative viability ([2]; first compound 2.53 µM): 1.02
relative viability ([2]; first compound 8 µM): 1.03
relative viability ([3]; first compound 0.253 µM): 0.618
relative viability ([3]; first compound 0.8 µM): 0.683
relative viability ([3]; first compound 2.53 µM): 0.592
relative viability ([3]; first compound 8 µM): 0.632
relative viability ([4]; first compound 0.253 µM): 0.859
relative viability ([4]; first compound 0.8 µM): 1
relative viability ([4]; first compound 2.53 µM): 0.934
relative viability ([4]; first compound 8 µM): 0.87

NCI-H2170
relative viability (Indole-3-carbinol; 0.253 µM): 0.999
relative viability (Indole-3-carbinol; 0.8 µM): 1
relative viability (Indole-3-carbinol; 2.53 µM): 0.929
relative viability (Indole-3-carbinol; 8 µM): 0.955
relative viability ([1]; first compound 0.253 µM): 0.794
relative viability ([1]; first compound 0.8 µM): 0.815
relative viability ([1]; first compound 2.53 µM): 0.738
relative viability ([1]; first compound 8 µM): 0.81
relative viability ([2]; first compound 0.253 µM): 1.26
relative viability ([2]; first compound 0.8 µM): 1.3
relative viability ([2]; first compound 2.53 µM): 1.15
relative viability ([2]; first compound 8 µM): 1.03
relative viability ([3]; first compound 0.253 µM): 0.588
relative viability ([3]; first compound 0.8 µM): 0.644
relative viability ([3]; first compound 2.53 µM): 0.703
relative viability ([3]; first compound 8 µM): 0.594
relative viability ([4]; first compound 0.253 µM): 0.633
relative viability ([4]; first compound 0.8 µM): 0.617
relative viability ([4]; first compound 2.53 µM): 0.597
relative viability ([4]; first compound 8 µM): 0.586

NCI-H2228
relative viability (Indole-3-carbinol; 0.253 µM): 1.09
relative viability (Indole-3-carbinol; 0.8 µM): 0.84
relative viability (Indole-3-carbinol; 2.53 µM): 1.19
relative viability (Indole-3-carbinol; 8 µM): 0.999
relative viability ([1]; first compound 0.253 µM): 0.697
relative viability ([1]; first compound 0.8 µM): 0.902
relative viability ([1]; first compound 2.53 µM): 0.779
relative viability ([1]; first compound 8 µM): 0.629
relative viability ([2]; first compound 0.253 µM): 0.582
relative viability ([2]; first compound 0.8 µM): 0.461
relative viability ([2]; first compound 2.53 µM): 0.567
relative viability ([2]; first compound 8 µM): 0.454
relative viability ([3]; first compound 0.253 µM): 0.501
relative viability ([3]; first compound 0.8 µM): 0.637
relative viability ([3]; first compound 2.53 µM): 0.595
relative viability ([3]; first compound 8 µM): 0.562
relative viability ([4]; first compound 0.253 µM): 0.659
relative viability ([4]; first compound 0.8 µM): 0.707
relative viability ([4]; first compound 2.53 µM): 0.532
relative viability ([4]; first compound 8 µM): 1.01

NCI-H2347
relative viability (Indole-3-carbinol; 0.253 µM): 1.08
relative viability (Indole-3-carbinol; 0.8 µM): 1.07
relative viability (Indole-3-carbinol; 2.53 µM): 1.09
relative viability (Indole-3-carbinol; 8 µM): 0.961
relative viability ([1]; first compound 0.253 µM): 1.06
relative viability ([1]; first compound 0.8 µM): 1.08
relative viability ([1]; first compound 2.53 µM): 1.14
relative viability ([1]; first compound 8 µM): 0.868
relative viability ([2]; first compound 0.253 µM): 0.747
relative viability ([2]; first compound 0.8 µM): 0.607
relative viability ([2]; first compound 2.53 µM): 0.706
relative viability ([2]; first compound 8 µM): 0.671
relative viability ([3]; first compound 0.253 µM): 0.303
relative viability ([3]; first compound 0.8 µM): 0.26
relative viability ([3]; first compound 2.53 µM): 0.313
relative viability ([3]; first compound 8 µM): 0.344
relative viability ([4]; first compound 0.253 µM): 0.624
relative viability ([4]; first compound 0.8 µM): 0.582
relative viability ([4]; first compound 2.53 µM): 0.634
relative viability ([4]; first compound 8 µM): 0.549

NCI-H2405
relative viability (Indole-3-carbinol; 0.253 µM): 1.06
relative viability (Indole-3-carbinol; 0.8 µM): 1.01
relative viability (Indole-3-carbinol; 2.53 µM): 1.06
relative viability (Indole-3-carbinol; 8 µM): 1.03
relative viability ([1]; first compound 0.253 µM): 0.901
relative viability ([1]; first compound 0.8 µM): 0.661
relative viability ([1]; first compound 2.53 µM): 0.988
relative viability ([1]; first compound 8 µM): 0.749
relative viability ([2]; first compound 0.253 µM): 0.875
relative viability ([2]; first compound 0.8 µM): 0.825
relative viability ([2]; first compound 2.53 µM): 0.901
relative viability ([2]; first compound 8 µM): 0.78
relative viability ([3]; first compound 0.253 µM): 0.212
relative viability ([3]; first compound 0.8 µM): 0.211
relative viability ([3]; first compound 2.53 µM): 0.2
relative viability ([3]; first compound 8 µM): 0.214
relative viability ([4]; first compound 0.253 µM): 0.907
relative viability ([4]; first compound 0.8 µM): 0.889
relative viability ([4]; first compound 2.53 µM): 0.908
relative viability ([4]; first compound 8 µM): 0.823
